EC50 data for 15 molecules are collected here from patent US8119661B2, “Piperidine derivatives and their use as muscarinic receptor modulators” (AstraZeneca AB, priority 2007, dated 2012).

The target of assay [1] is T1, cloned human M2 receptor (Homo sapiens, UniProt P08172).
T1 construct: purchased Perkin-Elmer RBHM2M; host or cells: CHO cell membranes
T1 sequence (P08172 1-466): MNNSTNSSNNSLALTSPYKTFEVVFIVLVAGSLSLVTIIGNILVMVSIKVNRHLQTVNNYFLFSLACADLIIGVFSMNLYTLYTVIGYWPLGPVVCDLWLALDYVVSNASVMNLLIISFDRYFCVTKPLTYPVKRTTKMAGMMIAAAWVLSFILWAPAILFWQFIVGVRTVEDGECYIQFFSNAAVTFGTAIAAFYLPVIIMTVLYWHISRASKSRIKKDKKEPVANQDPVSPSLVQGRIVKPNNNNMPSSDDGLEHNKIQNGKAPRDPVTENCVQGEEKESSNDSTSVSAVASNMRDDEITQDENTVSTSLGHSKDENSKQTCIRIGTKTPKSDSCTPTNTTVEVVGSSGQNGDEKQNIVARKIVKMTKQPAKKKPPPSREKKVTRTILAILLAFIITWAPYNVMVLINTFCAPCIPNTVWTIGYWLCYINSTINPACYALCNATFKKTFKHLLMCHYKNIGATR
Briefly: hM2 receptor GTPγS binding. To be noted: CHO membranes expressing hM2, [35S]GTPγS binding. In kind it is biochemical. The procedure:
Membranes produced from Chinese hamster ovary cells (CHO) expressing the cloned human M2 receptor (human Muscarinic receptor subtype 2, gene bank access NM_000739), are obtained from Perkin-Elmer (RBHM2M). The membranes are thawed at 37° C., passed 3 times through a 23-gauge blunt-end needle, diluted in the GTPγS binding buffer (50 mM Hepes, 20 mM NaOH, 100 mM NaCl, 1 mM EDTA, 5 mM MgCl2, pH 7.4, 100 μM DTT). The EC50, IC50 and Emax of the compounds of the invention are evaluated from 10-point dose-response curves (three fold concentration range) done in 60 μl in 384-well non-specific binding surface plate (Corning). Ten microliters from the dose-response curves plate (5× concentration) are transferred to another 384 well plate containing 25 μl of the following: 5 μg of hM2 membranes, 500 μg of Flashblue beads (Perkin-Elmer) and GDP 25 μM. An additional 15 μl containing 3.3× (60,000 dpm) of GTPγ^35S (0.4 nM final) are added to the wells resulting in a total well volume of 50 μl. Basal and maximal stimulated [^35S]GTPγS binding are determined in absence and presence of 30 μM final of acetylcholine agonist. The membranes/beads mix are pre-incubated for 15 minutes at room temperature with 25 μM GDP prior to distribution in plates (12.5 μM final). The reversal of acetylcholine-induced stimulation (2 μM final) of [^35S]GTPγS binding is used to assay the antagonist properties (IC50) of the compounds. The plates are incubated for 60 minutes at room temperature then centrifuged at 400 rpm for 5 minutes. The radioactivity (cpm) is counted in a Trilux (Perkin-Elmer).
Values of EC50, IC50 and Emax are obtained using sigmoidal fits of a non-linear curve-fitting program (XLfit version 4.2.2 Excel add-in version 4.2.2 build 18 math 1Q version 2.1.2 build 18) of percent stimulated [^35S]GTPγS binding vs. log(molar ligand). All pEC50 and pIC50 values are reported as arithmetic means±standard error of mean of ‘n’ independent experiments.
(GTPγS resists hydrolysis and so accumulates on activated G proteins.)

Assay [2] concerns the target T2, hM5 (human Muscarinic receptor subtype 5) (Homo sapiens, UniProt P08912).
T2 construct: expressed in transfected cells; host or cells: CHO cells (Chinese hamster ovary cells, ATCC)
T2 sequence (P08912 1-532): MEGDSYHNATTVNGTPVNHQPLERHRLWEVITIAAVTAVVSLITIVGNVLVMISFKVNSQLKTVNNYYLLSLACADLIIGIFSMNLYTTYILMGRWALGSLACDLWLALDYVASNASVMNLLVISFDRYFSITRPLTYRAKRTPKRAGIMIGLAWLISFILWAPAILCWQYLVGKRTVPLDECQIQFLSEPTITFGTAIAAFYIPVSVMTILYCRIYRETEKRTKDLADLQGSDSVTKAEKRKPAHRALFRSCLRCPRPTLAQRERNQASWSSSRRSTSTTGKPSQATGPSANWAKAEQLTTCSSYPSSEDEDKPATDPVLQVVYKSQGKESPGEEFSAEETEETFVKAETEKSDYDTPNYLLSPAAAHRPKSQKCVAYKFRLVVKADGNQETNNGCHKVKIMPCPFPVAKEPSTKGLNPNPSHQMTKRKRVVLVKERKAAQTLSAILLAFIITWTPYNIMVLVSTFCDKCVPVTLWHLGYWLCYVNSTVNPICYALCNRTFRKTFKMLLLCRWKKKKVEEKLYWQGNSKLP
Kind of assay: Human M5 calcium mobilization FLIPR assay. Particulars: CHO cells expressing hM5, intracellular Ca2+ release. In kind it is cell-based. The method, then:
The compound activity in the present invention (EC50 or IC50) is measured using a 384 plate-based imaging assay that monitors drug induced intracellular Ca^2+ release in whole cells. Activation of hM1 (human Muscarinic receptor subtype 1, gene bank access NM_000738), rM1 (rat Muscarinic receptor subtype 1, gene bank access NM_080773), hM3 (human Muscarinic receptor subtype 3, gene bank access NM_000740NM_000740) and hM5 (human Muscarinic receptor subtype 5, gene bank access NM_0121258), receptors expressed in CHO cells (Chinese hamster ovary cells, ATCC) is quantified in a Molecular Devices FLIPR II™ instrument as an increase in fluorescent signal. Inhibition of hM3 and hM5 by compounds is determined by the decrease in fluorescent signal in response to 2 nM acetylcholine activation.
Prior to experiment, the cell culture medium is removed from the plates by inversion. […] Plates are incubated at 37° C. for 60 minutes prior to start the experiment. The incubation is terminated by washing the cells four times in assay buffer, leaving a residual 25 μl buffer per well. Cell plates are then transferred to the FLIPR, ready for compound additions.
The day of experiment, acetylcholine and compounds are diluted in assay buffer in three-fold concentration range (10 points serial dilution) for addition by FLIPR instrument. For all calcium assays, a baseline reading is taken for 10 seconds followed by the addition of 12.5 μl of compounds, resulting in a total well volume of 37.5 μl. Data is collected every second for 60 pictures and then every 6 seconds for 20 pictures prior to the addition of agonist. For hM3 and hM5, before agonist addition, a second baseline reading is taken for 10 seconds followed by the addition of 12.5 μl of agonist or buffer, producing a final volume of 50 μl. After agonist stimulation, the FLIPR continues to collect data every second for 60 pictures and then every 6 seconds for 20 pictures. The fluorescence emission is read using filter 1 (emission 510-570 nm) by the FLIPR on board CCD camera.
Calcium mobilization output data are calculated as the maximal relative fluorescence unit (RFU) minus the minimal value for both compound and agonist reading frame (except for hM1 and rM1 using only the maximal RFU). Data are analyzed using sigmoidal fits of a non-linear curve-fitting program (XLfit version 4.2.2 Excel add-in version 4.2.2 build 18 math 1Q version 2.1.2 build 18). All pEC50 and pIC50 values are reported as arithmetic means±standard error of mean of ‘n’ independent experiments.
A general note: Calcium flux is commonly read through the fluorescence of an indicator in the cells.

A value given as a limit tells only on which side of the number the result lay.

Regarding `CCOC(=O)N1CCC(C)(N2CCC(N3C(=O)N[C@H]4CCCC[C@@H]43)CC2)C1` (mixture of isomers) [Example 07, Ethyl 3-[4-[(3aS,7aS)-2-oxo-3a,4,5,6,7,7a-hexahydro-3H-benzoimidazol-1-yl]-1-piperidyl]-3-methyl-pyrrolidine-1-carboxylate], the EC50 – broadly, the concentration at which the effect is half-maximal – in assay [1] worked out at 2.3 µM; in assay [2], 1.1 µM.
On to `CC1(N2CCC(N3C(=O)N[C@H]4CCCC[C@@H]43)CC2)CCN(C(=O)OCCF)C1` (mixture of isomers) [Example 08, 2-fluoroethyl 3-[4-[(3aS,7aS)-2-oxo-3a,4,5,6,7,7a-hexahydro-3H-benzoimidazol-1-yl]-1-piperidyl]-3-methyl-pyrrolidine-1-carboxylate], for which the EC50 in assay [1] is greater than 15 µM.
With `C#CCOC(=O)N1CCC(C)(N2CCC(N3C(=O)N[C@H]4CCCC[C@@H]43)CC2)C1` (mixture of isomers) [Example 09, Prop-2-ynyl 3-[4-[(3aS,7aS)-2-oxo-3a,4,5,6,7,7a-hexahydro-3H-benzoimidazol-1-yl]-1-piperidyl]-3-methyl-pyrrolidine-1-carboxylate], the values for the EC50 in assay [1] and in assay [2] were greater than 1 µM and 0.313 µM, respectively.
On to `COC(=O)N1CCC(C)(N2CCC(N3C(=O)N[C@H]4CCCC[C@@H]43)CC2)C1` (mixture of isomers) [Example 10, Methyl 3-[4-[(3aS,7aS)-2-oxo-3a,4,5,6,7,7a-hexahydro-3H-benzoimidazol-1-yl]-1-piperidyl]-3-methyl-pyrrolidine-1-carboxylate], for which, in assay [1], the EC50 is greater than 4 µM.
In turn, `CCOC(=O)N1CCC(C)(N2CCC(N3C(=O)N[C@@H]4CCCC[C@H]43)CC2)C1` (mixture of isomers) [Example 11, Ethyl 3-[4-[(3aR,7aR)-2-oxo-3a,4,5,6,7,7a-hexahydro-3H-benzoimidazol-1-yl]-1-piperidyl]-3-methyl-pyrrolidine-1-carboxylate] displayed an EC50 in assay [1] of 2.9 µM.
On to `CCOC(=O)N1CCC(C)(N2CCC(N3C(=O)N[C@@H]4CCCC[C@@H]43)CC2)CC1` (relative stereo) [Example 12, Ethyl 4-[4-[(cis)-2-oxo-3a,4,5,6,7,7a-hexahydro-3H-benzoimidazol-1-yl]-1-piperidyl]-4-methyl-piperidine-1-carboxylate], for which the EC50 is 0.13 µM in assay [1] and 0.919 µM in assay [2].
Regarding `CC(C)OC(=O)N1CCC(C)(N2CCC(N3C(=O)N[C@@H]4CCCC[C@@H]43)CC2)CC1` (relative stereo) [Example 13, Propan-2-yl 4-[4-[(cis)-2-oxo-3a,4,5,6,7,7a-hexahydro-3H-benzoimidazol-1-yl]-1-piperidyl]-4-methyl-piperidine-1-carboxylate], the values for the EC50 in assay [1] and in assay [2] were greater than 30 µM and greater than 40 µM, respectively.
Regarding `CC#CCOC(=O)N1CCC(C)(N2CCC(N3C(=O)N[C@H]4CCCC[C@@H]43)CC2)C1` (single isomer, unassigned) [Example 19], the EC50 in assay [1] worked out at 0.204 µM.
Take `CCOC(=O)N1CCC(C)(N2CCC(N3C(=O)N[C@H]4CCCC[C@@H]43)CC2)C1` (single isomer, unassigned) [Example 21]: the figures for the EC50 in assay [1] and in assay [2] were 4.87 µM and greater than 8.41 µM, respectively.
The like results for `CCOC(=O)N1CCC(C)(N2CCC(N3C(=O)N[C@H]4CCCC[C@@H]43)CC2)C1` (single isomer, unassigned) [Example 22] were, in that order, 1.17 µM and 0.412 µM.
`CCOC(=O)N1CCC(C)(N2CCC(N3C(=O)C[C@@H]4CCCC[C@H]43)CC2)C1` (stereo in doubt) [Example 23, Ethyl 3-[4-[(3aS,7aR)-2-oxo-3a,4,5,6,7,7a-hexahydro-3H-indol-1-yl]-1-piperidyl]-3-methyl-pyrrolidine-1-carboxylate]: the EC50 was 2.68 µM in assay [1] and greater than 120 µM in assay [2].
As for `CCOC(=O)N1CCC(C)(N2CCC(N3C(=O)N[C@H]4CCCC[C@@H]43)CC2)CC1` [Example 01, Ethyl 4-[4-[(3aS,7aS)-2-oxo-3a,4,5,6,7,7a-hexahydro-3H-benzoimidazol-1-yl]-1-piperidyl]-4-methyl-piperidine-1-carboxylate], the 50% effective concentration (EC50) in assay [1] is 0.045 µM; in assay [2], 0.0499 µM.
The like results for `CC(C)OC(=O)N1CCC(C)(N2CCC(N3C(=O)N[C@H]4CCCC[C@@H]43)CC2)CC1` [Example 02, Propan-2-yl 4-[4-[(3aS,7aS)-2-oxo-3a,4,5,6,7,7a-hexahydro-3H-benzoimidazol-1-yl]-1-piperidyl]-4-methyl-piperidine-1-carboxylate] were, in that order, greater than 0.2 µM and greater than 40 µM.
Taken in the same sequence, the figures for `CC1(N2CCC(N3C(=O)N[C@H]4CCCC[C@@H]43)CC2)CCN(C(=O)C2CC2)CC1` [Example 03, (3aS,7aS)-1-[1-[1-(cyclopropanecarbonyl)-4-methyl-4-piperidyl]-4-piperidyl]-3a,4,5,6,7,7a-hexahydro-3H-benzoimidazol-2-one] were greater than 1.6 µM and greater than 40 µM.
The molecule `C#CCOC(=O)N1CCC(C)(N2CCC(N3C(=O)N[C@H]4CCCC[C@@H]43)CC2)CC1` [Example 17, prop-2-ynyl 4-[4-[(3aS,7aS)-2-oxo-3a,4,5,6,7,7a-hexahydro-3H-benzimidazol-1-yl]-1-piperidyl]-4-methyl-piperidine-1-carboxylate] returned a concentration for a half-maximal effect (EC50) in assay [1] of 0.048 µM.
